# Measurements: paper PMC11249646, “Small-Molecule Disruptors of the Interaction between Calcium- and Integrin-Binding Protein 1 and Integrin αIIbβ3 as Novel Antiplatelet Agents” (ACS Pharmacology & Translational Science, 2024)
# Where two headings read alike, the source gives them in different places.
# What was measured:
# Type in all cases: binding
# [1] = target: T1, CIB1 and αIIb interaction (GST-CIB1 : F-αIIb peptide) (Homo sapiens, UniProt Q99828); assay: FP assay, 384-well format (screen); design: 384-well SCREEN Efficacy (%): concentration or dose not given beside the values; conditions: F-αIIb peptide; for IC50: read-out: 384-well SCREEN IC50; for 384-well SCREEN Confirm?: YES/NO
# T1 construct: made in house; host or cells: BL-21 plus RIL cells (E. coli)
# T1 sequence (Q99828 1-191): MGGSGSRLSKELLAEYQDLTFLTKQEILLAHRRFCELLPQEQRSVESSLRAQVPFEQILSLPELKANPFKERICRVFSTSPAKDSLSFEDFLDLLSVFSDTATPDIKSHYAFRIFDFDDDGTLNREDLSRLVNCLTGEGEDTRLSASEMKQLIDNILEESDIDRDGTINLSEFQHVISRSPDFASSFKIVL
# [2] = target: T2, GST-CIB1 : F-scrambled peptide (Homo sapiens, UniProt Q99828); assay: FP scrambled-peptide counter screen, 1536-well format; conditions: scrambled-peptide counterscreen; for COUNTERSCREEN Confirm?: YES/NO call; for IC50: read-out: COUNTERSCREEN IC50; for COUNTERSCREEN Curve Class: qHTS curve class
# T2 construct: made in house; host or cells: BL-21 plus RIL cells (E. coli)
# T2 sequence (Q99828 1-191): T1 sequence (Q99828 1-191)
# [3] = target: T3, CIB1 and αIIb interaction (CIB1-GST : F-αIIb peptide) (Homo sapiens, UniProt Q99828); assay: FP assay, 1536-well qHTS format (primary and confirmatory screen); conditions: for CONFIRMATORY SCREEN Confirm?: YES/NO call; for CONFIRMATORY SCREEN Curve Class: qHTS curve class; for CONFIRMATORY SCREEN Curve Class / Curve Class: negative sign = inhibitory curve; for CONFIRMATORY SCREEN Efficacy (%) / Efficacy (%): negative = inhibition
# T3 construct: made in house; host or cells: BL-21 plus RIL cells (E. coli)
# T3 sequence (Q99828 1-191): T1 sequence (Q99828 1-191)
# [4] = target: T2, GST-CIB1 : F-scrambled peptide; assay: FP scrambled-peptide counter screen, 384-well format; conditions: F-scrambled peptide; for IC50: read-out: 384-well COUNTERSCREEN IC50; for 384-well COUNTERSCREEN Confirm?: *: Curve in opposite direction
# [5] = confirmatory screen, read-out: CONFIRMATORY SCREEN IC50
# [6] = qHTS primary screen hits, Table S2
# [7] = qHTS primary screen hits, Table S2, several classes where COUNT > 1
# [8] = qHTS primary screen hits, Table S2, read-out: IC50
# [9] = qHTS FP screen hits, Table S2, read-out: IC50
# [10] = qHTS FP screen hits, Table S2, one class per curve where COUNT > 1
SMILES,384-well SCREEN Efficacy (%) [1] [%],IC50 [1] [µM],COUNTERSCREEN Efficacy (%) [2] [%],COUNTERSCREEN Confirm? [2],IC50 [2] [µM],CONFIRMATORY SCREEN Confirm? ([3]; confirmatory screen),CONFIRMATORY SCREEN Curve Class ([3]; confirmatory screen),CONFIRMATORY SCREEN Efficacy (%) ([3]; confirmatory screen),"IC50 [3, 5] [µM]","Efficacy (%) [3, 6] [%]","Curve Class [3, 7]","IC50 [3, 8] [µM]",384-well COUNTERSCREEN Efficacy (%) [4] [%],IC50 [4] [µM],384-well SCREEN Confirm? [1],COUNTERSCREEN Curve Class [2],384-well COUNTERSCREEN Confirm? [4],"Efficacy (%) ([3]; qHTS FP screen hits, Table S2)",further results
Cc1cc(SCc2sc(-c3ccc(Cl)c(Cl)c3)nc2C)ccc1OCc1nnn[nH]1.O=C(O)C(F)(F)F [NCGC00344871-01],42,> 120,204,YES,79.4,YES,-1.2,-63,15.8,-38,-1.2,17.8,167,44.7,,,,,
Cc1cc(S(=O)(=O)Nc2cnccc2C(=O)Nc2nc(-c3ccccc3)cs2)c(C)o1.O=C(O)C(F)(F)F [NCGC00345029-01],42,20,10,YES,,YES,-1.1,-83,,,,,16,> 120,YES,4,YES,,
CCOC(=O)c1c(NC(=O)C2CC(Cl)=CCC2C(=O)O)sc2c1CCCCC2.O=C(O)C(F)(F)F (centres unmarked) [NCGC00238648-01],15,> 120,16,YES,,YES,-2.2,-59,,,,,12,> 120,,4,,-22,"IC50 [3, 9]: 35.5 µM"
COC(=O)[C@]12CCC(C)(C)C[C@H]1[C@H]1C(=O)C=C3[C@@]4(C)C=C(C#N)C(=O)C(C)(C)[C@@H]4CC[C@@]3(C)[C@]1(C)CC2 [NCGC00186460-01],77,3.5,-36,YES,14.1,YES,-1.2,-71,7.1,,,,29,> 120,YES,-1.2,YES,-24,"IC50 [3, 9]: 10.8 µM"
COc1cc(C(=O)NS(=O)(=O)c2ccccc2C)ccc1Cc1cn(C)c2ccc(NC(=O)OC3CCCC3)cc12 [NCGC00164547-06],38,9.6,37,YES,50.1,YES,-1.2,-58,14.1,-38,-2.4,35.5,60,1,YES,,YES*,,
O=C(O)C(F)(F)F.O=c1c2ccccc2nc2sc(Nc3cccc(N4CCN5CCCCC5C4)c3)nn12 (centres unmarked) [NCGC00189229-01],42,120,-28,YES,56.2,YES,-1.2,-50,7.9,,,,42,17.8,YES,-2.4,,-20,"IC50 [3, 9]: 2.5 µM"
Oc1c(Cl)cc(Cl)c(Cl)c1Cc1c(O)c(Cl)cc(Cl)c1Cl [NCGC00091195-08],55,> 120,106,YES,89.1,YES,-1.4,-38,7.1,-59,-2.2,50.1,205,31.6,,,,,
Cc1ccc(-c2csc(NC(=O)c3ccncc3NS(=O)(=O)c3ccc(C)cc3)n2)cc1.O=C(O)C(F)(F)F [NCGC00319008-01],46,10.7,26,YES,,YES,-1.2,-50,,,,,70,8.9,YES,4,YES*,-45,"Curve Class [3, 10]: -1.2; IC50 [3, 9]: 17.8 µM"
Cc1ccc(S(=O)(=O)Nc2cnccc2C(=O)Nc2nc3ccccc3s2)cc1.O=C(O)C(F)(F)F [NCGC00343897-01],30,12.6,17,YES,,YES,-1.4,-52,10,-44,-1.2,31.6,16,> 120,YES,4,YES,,
O=C(O)C1=NC(C(=O)O)CC(/C=C/N2c3cc(O)c(OC4OC(CO)C(O)C(O)C4O)cc3CC2C(=O)O)=C1 (centres unmarked) [NCGC00346734-01],43,39.8,-18,YES,,YES,-2.2,-66,50.1,-25,,24.1,10,> 120,YES,4,YES,,"Curve Class [3, 6]: -2.4"
CC[C@@H](CO)NC(=O)[C@@H]1C=C2c3cccc4[nH]cc(c34)C[C@H]2N(C)C1.O=C(O)/C=C\C(=O)O [NCGC00017258-05],80,60,-16,YES,,YES,-2.4,-34,,,,,80,,YES,4,,-131,"Curve Class [3, 10]: -2.1"
O=C(Cc1ccc(Cl)c(Cl)c1)Nc1ccc(S(=O)(=O)Nc2ccon2)cc1.O=C(O)C(F)(F)F [NCGC00244858-03],35,8.9,-10,YES,,YES,-1.4,-39,22.4,-27,,3.2,43,25.1,YES,4,,,"Curve Class [3, 6]: -1.4"
Cc1ccc(S(=O)(=O)Nc2cnccc2C(=O)Nc2nc(-c3nc4ccccc4s3)cs2)cc1.O=C(O)C(F)(F)F [NCGC00343736-01],44,22.4,-16,YES,,YES,-1.1,-89,,-51,,28.2,23,> 120,YES,4,YES,,"Curve Class [3, 6]: -1.2"
Cc1ccccc1S(=O)(=O)Nc1cnccc1C(=O)Nc1nc(-c2ccccc2)cs1.O=C(O)C(F)(F)F [NCGC00344941-01],35,17.8,10,YES,,YES,-1.2,-59,,-51,-2.2,44.7,20,> 120,YES,4,YES,,
